Assay results published in patent US9265773B2, “Tetracyclic heterocycle compounds and methods of use thereof for the treatment of viral diseases” (priority 2011, dated 2016).

Columns and labels:
HCV replicon genotype 1b = assay: microbe, parasite or virus in culture; type: cell-based; conditions: genotype 1b replicon cells, incubated 96 hours, NS3/4A ELISA readout
HCV replicon genotype 1a = assay: microbe, parasite or virus in culture; type: cell-based; conditions: genotype 1a replicon cells, incubated 96 hours, NS3/4A ELISA readout

Structure (SMILES) | IC50 (HCV replicon genotype 1b) | IC50 (HCV replicon genotype 1a) | IC50 (HCV replicon genotype 1b; Hepatitis C virus, 96 h) | IC50 (HCV replicon genotype 1a; Hepatitis C virus, 96 h)
CNC(=O)c1c(-c2ccc(F)cc2)oc2cc(N(C)S(C)(=O)=O)c(-c3ccc4c(n3)-c3cc5c(F)cccc5n3C(C(N)=O)O4)cc12 (centres unmarked) [Compound 105, 11-fluoro-2-(2-(4-fluorophenyl)-3-(methylcarbamoyl)-6-(N-methylmethylsulfonamido)benzofuran-5-yl)-6H-pyrido[2′,3′:5,6][1,3]oxazino[3,4-a]indole-6-carboxamide] | 0.9 nM | 1.4 nM | – | –
CCOC(=O)N(C)C(=O)c1c(-c2ccc(F)cc2)oc2cc(N(C)S(C)(=O)=O)c(-c3ccc4c(n3)-c3cc5c(F)cccc5n3CO4)cc12 [Compound 208, Ethyl (5-(11-fluoro-6H-pyrido[2′,3′:5,6][1,3]oxazino[3,4-a]indol-2-yl)-2-(4-fluorophenyl)-6-(N-methylmethylsulfonamido)benzofuran-3-carbonyl)(methyl)carbamate] | – | – | 122 nM | 42 nM
CNC(=O)c1c(-c2ccc(F)cc2)oc2cc(N(C)S(C)(=O)=O)c(-c3ccc4c(c3)-c3cc5ccccc5n3CO4)cc12 [Compound 10] | – | – | 2.4 nM | 1.6 nM
CCNC(=O)c1c(-c2ccc(F)cc2)oc2cc(N(C)S(C)(=O)=O)c(-c3ccc4c(n3)-c3cc5c(F)cccc5n3CO4)cc12 [Compound 156] | – | – | 2.9 nM | 2.3 nM
CNC(=O)c1c(-c2ccc(F)cc2)oc2cc(N(CCF)S(C)(=O)=O)c(-c3ccc4c(n3)-c3cc5c(C#N)cccc5n3CO4)cc12 [Compound 191] | – | – | 2.2 nM | 1.7 nM
CNC(=O)c1c(-c2ccc(F)cc2)oc2cc(N(C)S(C)(=O)=O)c(-c3ncc4c(n3)-c3cc5c(C#N)cccc5n3CO4)cc12 [Compound 26] | – | – | 1.2 nM | 1.1 nM
CNC(=O)c1c(-c2ccc(F)cc2)oc2cc(N(CC(C)O)S(C)(=O)=O)c(-c3ccc4c(n3)-c3cc5c(F)cccc5n3CO4)cc12 (centres unmarked) [Compound 203] | 8.9 nM | 2.9 nM | – | –
CNC(=O)c1c(-c2ccc(F)cc2)oc2cc(N(C)S(C)(=O)=O)c(-c3ccc4c(n3)-c3cc5c(CN(C)C)cccc5n3CO4)cc12 [Compound 70] | – | – | 18 nM | 71 nM
CNC(=O)c1c(-c2ccc(F)cc2)oc2cc(N(C)S(C)(=O)=O)c(-c3ccc4c(n3)-c3[nH]c5cccc(F)c5c3C(c3nccs3)O4)cc12 (centres unmarked) [Compound 67] | – | – | 10 nM | 9.2 nM
CNC(=O)c1c(-c2ccc(F)cc2)oc2cc(N(C)S(C)(=O)=O)c(-c3ccc4c(n3)-c3cc5cccc(CN)c5n3CO4)cc12 [Compound 69] | – | – | 45 nM | 57 nM
CNC(=O)c1c(-c2ccc(F)cc2)oc2cc(N3CCCC3=O)c(-c3ccc4c(n3)-c3cc5c(F)cccc5n3CO4)cc12 [Compound 168, 5-(11-fluoro-6H-pyrido[2′,3′:5,6][1,3]oxazino[3,4-a]indol-2-yl)-2-(4-fluorophenyl)-N-methyl-6-(2-oxopyrrolidin-1-yl)benzofuran-3-carboxamide] | – | – | 2.8 nM | 3.3 nM
CNC(=O)c1c(-c2ccc(F)cc2)oc2cc(N(C)S(C)(=O)=O)c(-c3ccc4c(n3)-c3cc5c(F)cccc5n3C(C(=O)NC(C)C)O4)cc12 (centres unmarked) [Compound 111] | – | – | 4.3 nM | 4.5 nM
CNC(=O)c1c(-c2ccc(F)cc2)oc2cc(N(C)S(C)(=O)=O)c(-c3ccc4c(n3)-c3cc5cccc(CN(C)C)c5n3CO4)cc12 [Compound 71] | – | – | 4.5 nM | 13 nM
CNC(=O)c1c(-c2ccc(F)cc2)oc2cc(-n3cn[nH]c3=O)c(-c3ccc4c(n3)-c3cc5c(F)cccc5n3CO4)cc12 [Compound 164] | – | – | 1 nM | 1.7 nM
CNC(=O)c1c(-c2ccc(F)cc2)oc2cc(N(C)S(C)(=O)=O)c(-c3ccc4c(n3)-c3cc5c(F)cccc5n3C(COC(=O)[C@@H](NC(=O)OC)C(C)C)O4)cc12 (some centres unmarked) [Compound 103] | – | – | 6.9 nM | 3.3 nM
CNC(=O)c1c(-c2ccc(F)cc2)oc2cc(C(N)=O)c(-c3ccc4c(n3)-c3cc5c(F)cccc5n3CO4)cc12 [Compound 183, 5-(11-fluoro-6H-pyrido[2′,3′:5,6][1,3]oxazino[3,4-a]indol-2-yl)-2-(4-fluorophenyl)-N3-methylbenzofuran-3,6-dicarboxamide] | – | – | 7.1 nM | 2 nM
CNC(=O)c1c(-c2ccc(F)cc2)oc2cc(N(C)S(C)(=O)=O)c(-c3ccc4c(n3)-c3cc5c(F)cccc5n3C(CNS(C)(=O)=O)O4)cc12 (centres unmarked) [Compound 128, 5-(11-fluoro-6-(methylsulfonamidomethyl)-6H-pyrido[2′,3′:5,6][1,3]oxazino[3,4-a]indol-2-yl)-2-(4-fluorophenyl)-N-methyl-6-(N-methylmethylsulfonamido)benzofuran-3-carboxamide] | – | – | 0.9 nM | 2.6 nM

Structure (SMILES) | IC50 (HCV replicon genotype 1b) | IC50 (HCV replicon genotype 1a) | IC50 (HCV replicon genotype 1b; Hepatitis C virus, 96 h) | IC50 (HCV replicon genotype 1a; Hepatitis C virus, 96 h)
CNC(=O)c1c(-c2ccc(F)cc2)oc2cc(N(C)S(C)(=O)=O)c(-c3ncc4c(n3)-c3cc5c(F)cccc5n3CCO4)cc12 [Compound 8] | – | – | 2.1 nM | 1.6 nM
Cc1n[nH]c(-c2c(-c3ccc(F)cc3)oc3cc(N(C)S(C)(=O)=O)c(-c4ccc5c(n4)-c4cc6c(F)cccc6n4CO5)cc23)n1 [Compound 161, N-(5-(11-fluoro-6H-pyrido[2′,3′:5,6][1,3]oxazino[3,4-a]indol-2-yl)-2-(4-fluorophenyl)-3-(3-methyl-1H-1,2,4-triazol-5-yl)benzofuran-6-yl)-N-methylmethanesulfonamide] | – | – | 54 nM | 32 nM
CNC(=O)c1c(-c2ccc(F)cc2)oc2cc(N(C)S(C)(=O)=O)c(-c3ccc4c(n3)-c3cc5c(Cl)cccc5n3CO4)cc12 [Compound 14] | – | – | 6.2 nM | 3 nM
CNC(=O)c1c(-c2ccc(F)cc2)oc2cc(N(C)S(C)(=O)=O)c(-c3ccc4c(c3)-c3nc5ccccc5n3CO4)cc12 [Compound 133, 5-(6H-benzo[e]benzo[4,5]imidazo[1,2-c][1,3]oxazin-2-yl)-2-(4-fluorophenyl)-N-methyl-6-(N-methylmethylsulfonamido)benzofuran-3-carboxamide] | – | – | 3.2 nM | 2.6 nM
CNC(=O)c1c(-c2ccc(F)cc2)oc2cc(N(C)S(C)(=O)=O)c(-c3ccc4c(c3)-c3[nH]c5ccccc5c3C3(CCCC3)O4)cc12 [Compound 65] | – | – | 19 nM | 11 nM
CNC(=O)c1c(-c2ccc(F)cc2)oc2cc(N(C)S(C)(=O)=O)c(-c3ccc4c(n3)-c3cc5c(F)cccc5n3C(C)O4)cc12 (centres unmarked) [Compound 38] | 5.8 nM | 3.2 nM | – | –
CNC(=O)c1c(-c2ccc(F)cc2)oc2cc(N(C)S(C)(=O)=O)c(-c3ccc4c(n3)-c3cc5c(F)cccc5n3C(C(C)(C)O)O4)cc12 (centres unmarked) [Compound 101, 5-(11-fluoro-6-(2-hydroxypropan-2-yl)-6H-pyrido[2′,3′,5,6][1,3]oxazino[3,4-a]indol-2-yl)-2-(4-fluorophenyl)-N-methyl-6-(N-methylmethylsulfonamido)benzofuran-3-carboxamide] | – | – | 8.7 nM | 5.8 nM
CNC(=O)c1c(-c2ccc(F)cc2)oc2cc(N(C)S(C)(=O)=O)c(-c3ccc4c(c3)-c3cc5ccccc5n3CC(N(C)CCO)CO4)cc12 (centres unmarked) [Compound 86] | – | – | 12 nM | 17 nM
CNC(=O)c1c(-c2ccc(F)cc2)oc2cc(N(C)S(C)(=O)=O)c(-c3cc4c(cn3)OCn3c-4nc4cccnc43)cc12 [Compound 138] | – | – | 19 nM | 62 nM
CC(=O)N(C)C(=O)c1c(-c2ccc(F)cc2)oc2cc(N(C)S(C)(=O)=O)c(-c3ccc4c(n3)-c3cc5c(F)cccc5n3CO4)cc12 [Compound 210, N-acetyl-5-(11-fluoro-6H-pyrido[2′,3′:5,6][1,3]oxazino[3,4-a]indol-2-yl)-2-(4-fluorophenyl)-N-methyl-6-(N-methylmethylsulfonamido)benzofuran-3-carboxamide] | – | – | 4.2 nM | 2.1 nM
CNC(=O)c1c(-c2ccc(F)cc2)oc2cc(N(C)S(C)(=O)=O)c(-c3ccc4c(n3)-c3cc5c(F)cccc5n3C(CF)O4)cc12 (centres unmarked) [Compound 98, 5-(11-fluoro-6-(fluoromethyl)-6H-pyrido[2′,3′:5,6][1,3]oxazino[3,4-a]indol-2-yl)-2-(4-fluorophenyl)-N-methyl-6-(N-methylmethylsulfonamido)benzofuran-3-carboxamide] | – | – | 6.3 nM | 3.9 nM
CNC(=O)c1c(-c2ccc(F)cc2)oc2cc(N(C)S(C)(=O)=O)c(-c3ccc4c(n3)-c3cc5cccc(F)c5n3CO4)cc12 [Compound 20] | – | – | 6.9 nM | 6.7 nM
CNC(=O)c1c(-c2ccc(F)cc2)oc2cc(N(C)S(C)(=O)=O)c(-c3ccc4c(c3)-c3nc5ccc(F)cn5c3CO4)cc12 [Compound 143] | – | – | 8 nM | 15 nM
CNC(=O)c1c(-c2ccc(F)cc2)oc2cc(N(CC(F)F)S(C)(=O)=O)c(-c3ccc4c(n3)-c3cc5c(C#N)cccc5n3CO4)cc12 [Compound 188] | – | – | 3.7 nM | 3.8 nM
CNC(=O)c1c(-c2ccc(F)cc2)oc2cc(N(C)S(C)(=O)=O)c(-c3ccc4c(n3)-c3cc5ccccc5n3CO4)cc12 [Compound 1, 2-(4-fluorophenyl)-N-methyl-6-(N-methylmethylsulfonamido)-5-(6H-pyrido[2′,3′:5,6][1,3]oxazino[3,4-a]indol-2-yl)benzofuran-3-carboxamide] | – | – | 4.8 nM | 2.4 nM
CNC(=O)c1c(-c2ccc(F)cc2)oc2cc(N(C)S(C)(=O)=O)c(-c3ccc4c(n3)-c3cc5c(F)cccc5n3[C@H](COC(=O)[C@@H](N)C(C)C)O4)cc12 [Compound 102, (S)—((S)-11-fluoro-2-(2-(4-fluorophenyl)-3-(methylcarbamoyl)-6-(N-methylmethylsulfonamido)benzofuran-5-yl)-6H-pyrido[2′,3′:5,6][1,3]oxazino[3,4-a]indol-6-yl)methyl 2-amino-3-methylbutanoate] | – | – | 4.3 nM | 3.9 nM
CNC(=O)c1c(-c2ccc(F)cc2)oc2cc(N(C)S(C)(=O)=O)c(-c3ccc4c(c3)-c3cc5ccccc5n3CCO4)cc12 [Compound 42, 5-(6,7-dihydrobenzo[6,7][1,4]oxazepino[4,5-a]indol-2-yl)-2-(4-fluorophenyl)-N-methyl-6-(N-methylmethylsulfonamido)benzofuran-3-carboxamide] | – | – | 4.5 nM | 3.1 nM
